Where a SMILES comes first, the peptide text is derived from it. The star is where a group is joined. Cbz = O=C(OCc1ccccc1)*
What was measured:
[1] = system: mutant R77C α-sarcoglycan; assay: Quadritransfected cell model: membrane targeting of mutant R77C α-sarcoglycan, immunohistochemical labelling; type: cell-based, human
Description: (§1) A second aspect of the invention relates to the assay used for in vitro assessment of the efficacy of inhibitors of the endoplasmic reticulum associated degradation (ERAD) pathway, used for the treatment of sarcoglycanopathies. This assay consists of the following steps: • co-transfection of cells with the four sarcoglycan genes (γ-, α-, β- and δ-), of which one carries the mutation to be tested; • incubation for several hours in the presence of the inhibitor; • localisation of the sarcoglycan complex.
(§2) Cross-sections were dried, then rehydrated in PBS or fixed cells were treated for 20 min with 1% triton in PBS, then incubated for 30 min at room temperature (RT) in PBS containing 15% foetal calf serum. Cross-sections were incubated with polyclonal anti-sarcoglycan antibodies (α-sarcoglycan: dilution 1/1000, targeting amino acids 366-379 of human α-sarcoglycan; β-sarcoglycan: dilution 1/20, NCL-b-SARC (Novocastra); γ-sarcoglycan: dilution 1/20, NCL-g-SARC (Novocastra); dystrophin: dilution 1/20, NCL-DYS2 (Novocastra); and calreticulin: dilution 1/70, ab4109 (Abcam)) for 1 to 2 hours at RT then rinsed 3 times in PBS. […] Cross-sections were then rinsed three times in PBS, mounted with fluoromount-G (Southern Biotech 0100-01) and then observed with a confocal microscope (Leica). Immunohistochemical analysis of human biopsy specimens was performed as described in Hackman et al. (9).
NIH3T3 or 911 cells were grown in Dulbecco's Modified Eagle Medium supplemented with glutamine, gentamicin and 10% foetal calf serum. Cells were transfected using […] Fugene (ROCHE) per 1 μg plasmid. 0.5 μg of each plasmid (α-SG or α-SG-R77C and β-SG, γ-SG, δ-SG) was used per well in 6-well dishes. For treatment by inhibitors, 43 hours after transfection cells were incubated for 5 hours with either the mannosidase inhibitor (kifunensin 5 μM, VWR) or the proteasome inhibitor (MG132 5 μM diluted in DMSO, Sigma). Cells were then rinsed in PBS and fixed with 3.7% formaldehyde in PBS for 15 min at RT, and rinsed three more times in PBS before immunohistochemical labelling. […]

[2] = system: mutant Q11E β-sarcoglycan; assay: Quadritransfected cell model: immunohistochemical labelling of mutant Q11E β-sarcoglycan; type: cell-based, human; conditions: dMJ 5, 50 or 100 μM; FIG. 12C
Description: as §1
C/Immunohistochemical labelling of β-sarcoglycan in cells quadritransfected with the three α-, γ- and δ-sarcoglycans and mutant Q11E β-sarcoglycan with or without 1-deoxymannojirimycin (dMJ) 5, 50 or 100 μM.
B/Immunohistochemical labelling of β-sarcoglycan in cells quadritransfected with the three α-, γ- and δ-sarcoglycans and mutant Q11E β-sarcoglycan with or without kifunensin 5 μM.
(§3) Cross-sections were dried, then rehydrated in PBS or fixed cells were treated for 20 min with 1% triton in PBS, then incubated for 30 min at room temperature (RT) in PBS containing 15% foetal calf serum. […]

[3] = system: mutant E262K δ-sarcoglycan; assay: Quadritransfected cell model: immunohistochemical labelling of mutant E262K δ-sarcoglycan; type: cell-based, human; conditions: dMJ 5 or 100; FIG. 12B
Description: as §1
B/Immunohistochemical labelling of δ-sarcoglycan in cells quadritransfected with the three α-, β- and γ-sarcoglycans and mutant E262K δ-sarcoglycan with or without 1-deoxymannojirimycin (dMJ) 5 or 100
FIG. 13: A/Immunohistochemical labelling of δ-sarcoglycan in cells quadritransfected with the three α-, β- and γ-sarcoglycans and mutant E262K δ-sarcoglycan with or without kifunensin 5 μM.
as §3

[4] = system: mutant α-sarcoglycan in Sgca−/− muscle; assay: Intramuscular inhibitor in Sgca−/− mice injected with AAV-SGCA77C vector: α-sarcoglycan labelling of muscle; type: in vivo, mouse; conditions: AAV-SGCA77C in tibialis anterior, 10 μM kifunensin intramuscular over one week, FIG. 11
Description: as §2
The rAAV2/1 viral preparations were injected (10^10 viral genomes (vg) in 30 μl total volume) in the left tibialis anterior muscle of Sgca−/− mice. On days 20, 22, 25 and 27 after injection, 10 μM kifunensin or 20 μM MG132 were injected into the muscle (i.e. either twice or 4 times the concentrations used in vitro to take into account diffusion within the muscle). One day prior to sacrifice (day 27), mice were injected intraperitoneally with Evans blue dye. […]

[5] = cited from earlier work

OC[C@H]1NC[C@@H](O)[C@@H](O)[C@@H]1O [1-deoxymannojirimycin]
membrane targeting of mutant α-sarcoglycan (R77C) ([1]; 100 μM 1-deoxymannojirimycin, FIG. 12A): efficacy of this substance for restoring membrane targeting | restoration for mutation Q11E on sub-unit β [2]: confirmed our working hypothesis | restoration for mutation E262K on sub-unit δ [3]: confirmed our working hypothesis

CC(C)C[C@@H](C=O)NC(=O)[C@H](CC(C)C)NC(=O)[C@H](CC(C)C)NC(=O)OCc1ccccc1 [MG132] (Cbz-Leu-Leu-Leu-aldehyde)
membrane targeting of mutant α-sarcoglycan (R77C) ([1]; MG132 5 μM, 5 hours, 43 hours after transfection, NIH3T3 or 911 cells, FIG. 9): restored membrane targeting

O=C1N[C@@H]2[C@@H](O)[C@@H](O)[C@H](O)[C@@H](CO)N2C1=O [kifunensin, Kifunensin]
membrane targeting of mutant α-sarcoglycan (R77C) ([1]; kifunensin 5 μM, 5 hours, 43 hours after transfection, NIH3T3 or 911 cells, FIG. 10): restore membrane targeting | intracellular α-sarcoglycan aggregates in muscle [4]: absence of aggregates | water solubility [5]: water-soluble
